Laboratory results taken from publication PMC8981170 (RSC Advances, 2022).
Where “and” joins values, the source holds several entries; their conditions need not be identical. Equal entries are not always repeated.

How the values were obtained:
Sirt1 [1] = target: T1, Sirt1 (Homo sapiens, UniProt Q96EB6); test: Cell-based Sirt1 inhibition in HepG2 cells; conditions: HepG2, read-out: % Inhibition Sirt1, HepG2 cells, 10 μM, 6 h; n = 3
T1 sequence (Q96EB6 1-747): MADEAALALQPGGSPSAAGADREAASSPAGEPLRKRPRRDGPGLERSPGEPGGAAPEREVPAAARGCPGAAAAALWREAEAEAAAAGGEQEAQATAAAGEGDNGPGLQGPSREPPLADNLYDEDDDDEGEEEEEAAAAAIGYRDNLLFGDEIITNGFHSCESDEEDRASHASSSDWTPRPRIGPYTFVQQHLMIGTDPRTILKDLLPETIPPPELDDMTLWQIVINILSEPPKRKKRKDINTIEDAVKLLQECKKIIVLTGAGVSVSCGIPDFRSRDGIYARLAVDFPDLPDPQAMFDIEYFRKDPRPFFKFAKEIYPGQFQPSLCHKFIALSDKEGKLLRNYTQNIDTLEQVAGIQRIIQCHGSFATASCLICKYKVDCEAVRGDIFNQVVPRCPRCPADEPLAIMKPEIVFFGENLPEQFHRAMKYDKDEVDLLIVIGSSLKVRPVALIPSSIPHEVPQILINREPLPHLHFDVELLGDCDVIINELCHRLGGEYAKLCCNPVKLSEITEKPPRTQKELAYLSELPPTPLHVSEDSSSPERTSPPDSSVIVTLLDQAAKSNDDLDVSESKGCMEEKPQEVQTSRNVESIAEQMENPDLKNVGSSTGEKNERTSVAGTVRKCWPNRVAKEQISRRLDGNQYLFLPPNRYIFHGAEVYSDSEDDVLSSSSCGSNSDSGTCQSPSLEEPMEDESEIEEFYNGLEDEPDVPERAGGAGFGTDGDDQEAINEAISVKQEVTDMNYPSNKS

Sirt1 [2] = target: T1, Sirt1; test: Enzyme-based Sirt1 inhibition assay at 10 μM; type: biochemical; conditions: for % inhibition at 10 μM Sirt1: mean of three independent experiments; for inhibition at 10 µM: read-out: % inhibition at 10 μM Sirt1, 10 μM, mean of three independent experiments
Sirt2 + Sirt3 = test: Cell-based Sirt2/Sirt3 joint inhibition in HepG2 cells; set-up: species or system human; conditions: 10 μM, 6 h
MCF7 cells = test: MTT cell viability assay, MCF7; type: cell-based, human; conditions: 1-400 μM, 24 h
Ac-p53 in HepG2 cells = test: Western blotting for acetylated p53; type: cell-based, human; conditions: 25 μM, 48 h, western blot
Sirt1 [3] = target: T1, Sirt1; test: Concentration-dependent Sirt1 inhibition
HepG2 cells = test: MTT cell viability assay, HepG2; type: cell-based, human; conditions: 1-400 μM, 24 h
[4] = joint inhibition of Sirt2 and Sirt3, n = 3, 10 µM

Row | Compound | inhibition at 10 µM (Sirt1 [1]) [%] | % inhibition at 10 μM Sirt1 (Sirt1 [2]) [%] | inhibition at 10 µM (Sirt1 [2]) [%] | other results
1 | COc1ccc(-c2nc3cc(C(=O)N[C@H](C(=O)O)C(C)C)ccc3n2C2CCCCC2)cc1 [Compound 7b] | < 1 | 88.18 | > 80 | –
2 | O=C(O)[C@H](Cc1c[nH]c2ccccc12)N1C(=O)C(=Cc2c[nH]nc2-c2ccc([N+](=O)[O-])cc2)SC1=S [Compound 13l] | ≥ 30 | 89.64 | > 80 | % Inhibition Sirt2 + Sirt3 (Sirt2 + Sirt3; [4]): 9% and 9.47 ± 0.92%; Effect on MCF7 cell viability (MCF7 cells): no significant changes in cell viability; Ac-p53 levels in HepG2 cells (Ac-p53 in HepG2 cells): no major change; IC50 (Sirt1 [3]): 0.73 ± 0.06 µM; Effect on HepG2 cell viability (HepG2 cells): very less decrease in cell viability
3 | COc1ccc(-c2n[nH]cc2C=C2SC(=S)N([C@@H](Cc3c[nH]c4ccccc34)C(=O)O)C2=O)cc1 [Compound 13d] | ≥ 30 | 90.64 | > 80 | % Inhibition Sirt2 + Sirt3 (Sirt2 + Sirt3; [4]): 6% and 6.04 ± 0.91%; Effect on MCF7 cell viability (MCF7 cells): no significant changes in cell viability; Ac-p53 levels in HepG2 cells (Ac-p53 in HepG2 cells): no major change; IC50 (Sirt1 [3]): 0.71 ± 0.03 µM
4 | CC(C)C[C@H](NC(=O)c1ccc2c(c1)nc(-c1ccc(F)cc1)n2C1CCCCC1)C(=O)O [Compound 7g] | < 1 | – | 80.8 | –
5 | C[C@@H](C(=O)O)N1C(=O)C(=Cc2c[nH]nc2-c2cc(F)cc(F)c2)SC1=S [Compound 13f] | – | – | < 30 | –
6 | O=C(N[C@@H](Cc1c[nH]c2ccccc12)C(=O)O)c1ccc2c(c1)nc(-c1ccc(F)cc1)n2C1CCCCC1 [Compound 7h] | < 1 | – | 86.8 | –
7 | C[C@@H](C(=O)O)N1C(=O)C(=Cc2c[nH]nc2-c2ccc([N+](=O)[O-])cc2)SC1=S [Compound 13j] | – | – | < 30 | –
8 | COc1ccc(-c2nc3cc(C(=O)N[C@@H](Cc4c[nH]c5ccccc45)C(=O)O)ccc3n2C2CCCCC2)cc1 [Compound 7d] | ≥ 30 | 89.99 | > 80 | % Inhibition Sirt2 + Sirt3 (Sirt2 + Sirt3; [4]): 19% and 20% and 19.89 ± 0.89%; Effect on MCF7 cell viability (MCF7 cells): continuous and comparatively higher decrease in cell viability with increasing inhibitor concentration; Ac-p53 levels in HepG2 cells (Ac-p53 in HepG2 cells): increased the Ac-p53 levels in HepG2 cells comparable to the positive control; IC50 (Sirt1 [3]): 0.77 ± 0.04 µM; Effect on HepG2 cell viability (HepG2 cells): continuous decrease in cell viability with increasing inhibitor concentration
9 | O=C(O)[C@H](Cc1ccccc1)N1C(=O)C(=Cc2c[nH]nc2-c2cc(F)cc(F)c2)SC1=S [Compound 13g] | – | – | < 30 | –
10 | O=C(O)[C@H](Cc1ccccc1)N1C(=O)C(=Cc2c[nH]nc2-c2ccc([N+](=O)[O-])cc2)SC1=S [Compound 13k] | – | – | < 30 | –
11 | COc1ccc(-c2nc3cc(C(=O)N[C@@H](CC(C)C)C(=O)O)ccc3n2C2CCCCC2)cc1 [Compound 7c] | 3.24 ± 0.27 | 86.34 | > 80 | % Inhibition Sirt2 + Sirt3 (Sirt2 + Sirt3; joint inhibition of Sirt2 and Sirt3, n = 3): 5.21 ± 0.78%
12 | COc1ccc(-c2n[nH]cc2C=C2SC(=S)N([C@@H](Cc3ccccc3)C(=O)O)C2=O)cc1 [Compound 13c] | – | – | < 30 | –
13 | CC(C)[C@H](NC(=O)c1ccc2c(c1)nc(-c1ccc(F)cc1)n2C1CCCCC1)C(=O)O [Compound 7f] | – | – | < 30 | –
14 | O=C(O)[C@H](Cc1c[nH]c2ccccc12)N1C(=O)C(=Cc2c[nH]nc2-c2cc(F)cc(F)c2)SC1=S [Compound 13h] | ≥ 30 | 89.15 | > 80 | % Inhibition Sirt2 + Sirt3 (Sirt2 + Sirt3; [4]): 10% and 9.53 ± 0.65%; Effect on MCF7 cell viability (MCF7 cells): no significant changes in cell viability; Ac-p53 levels in HepG2 cells (Ac-p53 in HepG2 cells): no major change; IC50 (Sirt1 [3]): 0.66 ± 0.02 µM; Effect on HepG2 cell viability (HepG2 cells): very less decrease in cell viability
15 | O=C(N[C@@H](Cc1c[nH]c2ccccc12)C(=O)O)c1ccc2c(c1)nc(-c1c(F)cccc1Cl)n2C1CCCCC1 [Compound 7l] | – | – | < 30 | –
16 | COc1ccc(-c2n[nH]cc2C=C2SC(=S)N([C@@H](C)C(=O)O)C2=O)cc1 [Compound 13b] | – | – | < 30 | –
17 | C[C@H](NC(=O)c1ccc2c(c1)nc(-c1ccc(F)cc1)n2C1CCCCC1)C(=O)O [Compound 7e] | – | – | < 30 | –
18 | COc1ccc(-c2nc3cc(C(=O)N[C@@H](C)C(=O)O)ccc3n2C2CCCCC2)cc1 [Compound 7a] | < 1 | 88.03 | > 80 | –
